Legend:
Experiment in all cases: biochemical
Design in all cases: KINOMEscan competition binding panel (Eurofins DiscoverX), single concentration, % inhibition
Details in all cases: read-out: 7 at 1 µM % inhibition
[1] = molecular target: T1, ABL1(T315I)-phosphorylated (Homo sapiens, UniProt P00519, T315I)
T1 construct: phosphorylated
In short: (§1)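 KINOMEscan selectivity screen; >400 human kinases; compound at 1 µM, single concentration.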

[2] = molecular target: AKT1 (Homo sapiens, UniProt P31749)
In short: as §1

[3] = molecular target: T2, ASK1 (Homo sapiens, UniProt Q99683)
T2 construct: gene MAP3K5
T2 sequence (Q99683 whole entry): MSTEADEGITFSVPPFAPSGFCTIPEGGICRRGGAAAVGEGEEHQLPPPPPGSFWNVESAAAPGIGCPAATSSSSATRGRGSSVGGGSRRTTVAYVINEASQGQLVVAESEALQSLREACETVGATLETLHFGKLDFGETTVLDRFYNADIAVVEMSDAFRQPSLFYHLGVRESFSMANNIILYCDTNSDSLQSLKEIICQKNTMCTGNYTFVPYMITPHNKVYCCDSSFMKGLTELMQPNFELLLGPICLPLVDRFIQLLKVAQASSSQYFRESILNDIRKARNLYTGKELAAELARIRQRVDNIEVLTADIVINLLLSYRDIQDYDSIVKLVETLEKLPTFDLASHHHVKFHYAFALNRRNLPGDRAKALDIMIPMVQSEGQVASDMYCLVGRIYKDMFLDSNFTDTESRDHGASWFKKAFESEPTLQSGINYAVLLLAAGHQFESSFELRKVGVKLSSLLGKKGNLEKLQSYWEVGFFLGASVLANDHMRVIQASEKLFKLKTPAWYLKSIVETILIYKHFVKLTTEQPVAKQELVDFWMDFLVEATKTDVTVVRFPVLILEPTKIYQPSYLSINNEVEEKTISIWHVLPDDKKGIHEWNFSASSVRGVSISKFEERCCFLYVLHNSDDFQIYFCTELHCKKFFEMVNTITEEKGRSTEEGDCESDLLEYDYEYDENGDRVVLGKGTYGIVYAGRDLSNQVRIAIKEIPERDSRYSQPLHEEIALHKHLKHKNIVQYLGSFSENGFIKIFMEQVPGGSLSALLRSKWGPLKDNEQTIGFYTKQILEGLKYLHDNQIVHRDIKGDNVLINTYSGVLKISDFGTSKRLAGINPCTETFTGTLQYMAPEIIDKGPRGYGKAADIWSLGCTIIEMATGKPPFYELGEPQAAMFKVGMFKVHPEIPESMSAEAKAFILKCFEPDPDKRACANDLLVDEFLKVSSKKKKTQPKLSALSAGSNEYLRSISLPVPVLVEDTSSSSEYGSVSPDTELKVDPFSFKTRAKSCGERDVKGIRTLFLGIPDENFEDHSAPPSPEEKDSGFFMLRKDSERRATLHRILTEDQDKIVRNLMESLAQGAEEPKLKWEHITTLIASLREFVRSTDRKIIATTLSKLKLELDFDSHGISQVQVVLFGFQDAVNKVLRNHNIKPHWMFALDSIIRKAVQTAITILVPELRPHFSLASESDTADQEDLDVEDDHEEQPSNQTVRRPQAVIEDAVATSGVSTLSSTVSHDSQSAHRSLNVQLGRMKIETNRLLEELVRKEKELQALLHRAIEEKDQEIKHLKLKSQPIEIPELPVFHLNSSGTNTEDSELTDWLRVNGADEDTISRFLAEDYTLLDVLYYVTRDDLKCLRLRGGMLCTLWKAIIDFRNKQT
In short: as §1

[4] = molecular target: T3, CDC2L5 (Homo sapiens, UniProt Q14004)
T3 construct: gene CDK13
T3 sequence (Q14004 whole entry): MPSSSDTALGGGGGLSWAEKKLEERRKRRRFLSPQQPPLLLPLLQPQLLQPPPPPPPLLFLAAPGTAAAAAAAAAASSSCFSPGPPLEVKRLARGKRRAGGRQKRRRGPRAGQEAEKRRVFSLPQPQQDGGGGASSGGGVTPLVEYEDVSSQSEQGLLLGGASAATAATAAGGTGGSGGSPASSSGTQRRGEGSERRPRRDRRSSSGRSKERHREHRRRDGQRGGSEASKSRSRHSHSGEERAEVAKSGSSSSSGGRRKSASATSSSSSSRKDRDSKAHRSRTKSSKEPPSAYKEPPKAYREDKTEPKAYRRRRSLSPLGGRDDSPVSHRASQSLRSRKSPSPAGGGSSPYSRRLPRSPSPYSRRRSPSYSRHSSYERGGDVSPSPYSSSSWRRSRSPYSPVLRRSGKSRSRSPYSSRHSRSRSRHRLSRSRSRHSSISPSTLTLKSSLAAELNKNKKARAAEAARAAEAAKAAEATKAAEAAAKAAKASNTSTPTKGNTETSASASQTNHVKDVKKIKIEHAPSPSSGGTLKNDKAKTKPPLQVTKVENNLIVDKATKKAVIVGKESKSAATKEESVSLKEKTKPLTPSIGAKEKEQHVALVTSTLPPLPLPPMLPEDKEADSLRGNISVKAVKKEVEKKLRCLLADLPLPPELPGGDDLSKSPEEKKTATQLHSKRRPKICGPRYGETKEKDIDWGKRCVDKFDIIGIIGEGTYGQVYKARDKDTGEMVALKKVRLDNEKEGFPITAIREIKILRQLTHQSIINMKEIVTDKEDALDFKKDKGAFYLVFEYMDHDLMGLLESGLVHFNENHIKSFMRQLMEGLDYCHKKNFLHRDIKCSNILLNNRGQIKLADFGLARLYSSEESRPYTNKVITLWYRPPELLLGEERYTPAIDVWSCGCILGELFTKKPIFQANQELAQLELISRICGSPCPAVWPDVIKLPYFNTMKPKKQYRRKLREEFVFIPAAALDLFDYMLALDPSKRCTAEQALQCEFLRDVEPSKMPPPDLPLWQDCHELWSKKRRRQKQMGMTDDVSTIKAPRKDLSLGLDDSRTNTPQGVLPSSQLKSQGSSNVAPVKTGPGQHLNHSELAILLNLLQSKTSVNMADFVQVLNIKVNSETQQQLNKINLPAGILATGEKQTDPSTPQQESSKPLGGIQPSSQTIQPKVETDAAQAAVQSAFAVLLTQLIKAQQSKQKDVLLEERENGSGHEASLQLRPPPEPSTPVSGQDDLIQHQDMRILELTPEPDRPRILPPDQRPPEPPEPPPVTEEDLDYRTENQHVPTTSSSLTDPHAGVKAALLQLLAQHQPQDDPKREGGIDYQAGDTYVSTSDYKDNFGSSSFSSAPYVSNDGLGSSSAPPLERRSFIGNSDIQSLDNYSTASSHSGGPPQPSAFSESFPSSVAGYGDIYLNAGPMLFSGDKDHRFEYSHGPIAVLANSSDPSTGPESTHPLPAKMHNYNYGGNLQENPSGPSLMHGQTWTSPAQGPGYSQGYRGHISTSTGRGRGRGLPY
In short: as §1

[5] = molecular target: T4, CDK4-cyclinD1 (Homo sapiens, UniProt P11802)
T4 construct: cyclinD1
In short: as §1

[6] = molecular target: CDKL5 (Homo sapiens, UniProt O76039)
In short: as §1

[7] = molecular target: DYRK2 (Homo sapiens, UniProt Q92630)
In short: as §1

[8] = molecular target: HIPK2 (Homo sapiens, UniProt Q9H2X6)
In short: as §1

[9] = molecular target: HIPK4 (Homo sapiens, UniProt Q8NE63)
In short: as §1

[10] = molecular target: KIT(A829P) (Homo sapiens, UniProt P10721, A829P)
In short: as §1

[11] = molecular target: KIT(L576P) (Homo sapiens, UniProt P10721, L576P)
In short: as §1

[12] = molecular target: MELK (Homo sapiens, UniProt Q14680)
Chain of MELK (Q14680 whole entry): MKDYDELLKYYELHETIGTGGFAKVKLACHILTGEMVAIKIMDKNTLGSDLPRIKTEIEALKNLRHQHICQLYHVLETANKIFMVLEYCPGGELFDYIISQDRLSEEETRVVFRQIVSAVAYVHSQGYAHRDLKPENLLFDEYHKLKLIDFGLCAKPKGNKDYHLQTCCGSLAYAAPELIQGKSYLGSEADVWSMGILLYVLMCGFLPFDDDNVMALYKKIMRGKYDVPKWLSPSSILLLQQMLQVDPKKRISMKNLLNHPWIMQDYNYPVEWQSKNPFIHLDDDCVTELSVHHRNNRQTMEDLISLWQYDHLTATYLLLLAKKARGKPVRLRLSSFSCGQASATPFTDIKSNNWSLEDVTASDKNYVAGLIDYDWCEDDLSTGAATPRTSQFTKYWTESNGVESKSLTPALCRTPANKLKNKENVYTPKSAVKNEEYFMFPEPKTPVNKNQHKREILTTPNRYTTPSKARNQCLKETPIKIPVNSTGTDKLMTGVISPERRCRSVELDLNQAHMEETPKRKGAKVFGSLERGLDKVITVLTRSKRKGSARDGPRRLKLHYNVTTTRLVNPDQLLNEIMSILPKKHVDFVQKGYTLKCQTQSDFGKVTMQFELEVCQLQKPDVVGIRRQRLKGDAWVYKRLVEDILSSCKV
In short: as §1

[13] = molecular target: T5, MST2 (Homo sapiens, UniProt Q13188)
T5 construct: gene STK3
In short: as §1

[14] = molecular target: T6, PFTK1 (Homo sapiens, UniProt O94921)
T6 construct: gene CDK14
In short: as §1

[15] = molecular target: PIK3CA(M1043I) (Homo sapiens, UniProt P42336, M1043I)
In short: as §1

[16] = molecular target: PRKCH (Homo sapiens, UniProt P24723)
Chain of PRKCH (P24723 whole entry): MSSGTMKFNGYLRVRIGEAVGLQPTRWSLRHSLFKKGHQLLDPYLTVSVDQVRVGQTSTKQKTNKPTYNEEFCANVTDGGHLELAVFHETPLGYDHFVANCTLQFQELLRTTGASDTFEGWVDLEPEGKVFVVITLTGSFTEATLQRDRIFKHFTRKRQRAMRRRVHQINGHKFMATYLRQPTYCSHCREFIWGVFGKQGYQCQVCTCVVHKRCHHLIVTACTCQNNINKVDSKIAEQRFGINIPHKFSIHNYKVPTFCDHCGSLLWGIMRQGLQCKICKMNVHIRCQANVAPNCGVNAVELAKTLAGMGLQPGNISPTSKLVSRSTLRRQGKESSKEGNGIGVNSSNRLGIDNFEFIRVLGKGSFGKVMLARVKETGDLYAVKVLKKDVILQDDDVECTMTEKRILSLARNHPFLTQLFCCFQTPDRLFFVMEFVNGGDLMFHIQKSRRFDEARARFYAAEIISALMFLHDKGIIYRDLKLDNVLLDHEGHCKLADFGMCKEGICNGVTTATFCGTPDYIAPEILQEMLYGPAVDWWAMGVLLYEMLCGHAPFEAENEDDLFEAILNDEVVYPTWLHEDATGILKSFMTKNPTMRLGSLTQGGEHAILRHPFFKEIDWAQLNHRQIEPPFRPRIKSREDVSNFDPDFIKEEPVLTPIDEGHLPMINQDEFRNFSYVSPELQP
In short: as §1

[17] = molecular target: RET(M918T) (Homo sapiens, UniProt P07949, M918T)
In short: as §1

[18] = molecular target: T7, RIPK5 (Homo sapiens, UniProt Q6XUX3)
T7 construct: gene DSTYK
In short: as §1

[19] = molecular target: T8, RSK1(Kin.Dom.1-N-terminal) (Homo sapiens, UniProt Q15418)
T8 construct: gene RPS6KA1; Kin.Dom.1-N-terminal
In short: as §1

[20] = molecular target: T9, RSK3(Kin.Dom.1-N-terminal) (Homo sapiens, UniProt Q15349)
T9 construct: gene RPS6KA2; Kin.Dom.1-N-terminal
In short: as §1

[21] = molecular target: STK35 (Homo sapiens, UniProt Q8TDR2)
Chain of STK35 (Q8TDR2 whole entry): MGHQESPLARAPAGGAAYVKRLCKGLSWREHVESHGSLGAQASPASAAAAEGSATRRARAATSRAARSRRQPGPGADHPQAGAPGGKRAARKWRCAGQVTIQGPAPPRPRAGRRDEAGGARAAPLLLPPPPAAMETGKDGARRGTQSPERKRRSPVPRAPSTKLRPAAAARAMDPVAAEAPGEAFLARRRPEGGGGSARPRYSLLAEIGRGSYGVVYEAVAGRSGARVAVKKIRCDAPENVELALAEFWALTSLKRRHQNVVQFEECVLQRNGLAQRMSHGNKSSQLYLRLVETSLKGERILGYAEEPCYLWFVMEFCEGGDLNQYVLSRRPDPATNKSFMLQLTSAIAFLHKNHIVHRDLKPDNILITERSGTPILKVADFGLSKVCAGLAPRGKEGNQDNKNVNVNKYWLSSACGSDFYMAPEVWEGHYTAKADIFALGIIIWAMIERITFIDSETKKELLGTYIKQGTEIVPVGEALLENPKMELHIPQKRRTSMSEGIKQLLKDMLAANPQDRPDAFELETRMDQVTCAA
In short: as §1

[22] = molecular target: T10, TAK1 (Homo sapiens, UniProt O43318)
T10 construct: gene MAP3K7
In short: as §1

[23] = molecular target: T11, YES (Homo sapiens, UniProt P07947)
T11 construct: gene YES1
In short: as §1

CNS(=O)(=O)c1ccc(N(C)C)c(Nc2ncnc3cc(OC)c(OC)cc23)c1 [compound 7, 3-((6,7-dimethoxyquinazolin-4-yl)amino)-4-(dimethylamino)-N-methylbenzenesulfonamide]
inhibition at 1 µM [1]: 0%
inhibition at 1 µM [2]: 0%
inhibition at 1 µM [3]: 0%
inhibition at 1 µM [4]: 0%
inhibition at 1 µM [5]: 20%
inhibition at 1 µM [6]: 9%
inhibition at 1 µM [7]: 0%
inhibition at 1 µM [8]: 0%
inhibition at 1 µM [9]: 13%
inhibition at 1 µM [10]: 61%
inhibition at 1 µM [11]: 49%
inhibition at 1 µM [12]: 17%
inhibition at 1 µM [13]: 0%
inhibition at 1 µM [14]: 0%
inhibition at 1 µM [15]: 29%
inhibition at 1 µM [16]: 13%
inhibition at 1 µM [17]: 0%
inhibition at 1 µM [18]: 49%
inhibition at 1 µM [19]: 2%
inhibition at 1 µM [20]: 0%
inhibition at 1 µM [21]: 0%
inhibition at 1 µM [22]: 51%
inhibition at 1 µM [23]: 0%

From publication PMC7180948, “New Insights into 4-Anilinoquinazolines as Inhibitors of Cardiac Troponin I–Interacting Kinase (TNNi3K)” (Molecules, 2020)
